# Laboratory results as given in PubChem BioAssay AID2060326 (Molecular Pharmacology Branch, DTP, NCI, 2025).
# Test system: MDA-MB-468 multi-cell spheroids, viability
# Experiment: Anticancer human tumor MDA-MB-468 cell line growth inhibition [IpAb];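 further: spheroids exposed to agents for seven days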;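 on viability, T/C: 100% = DMSO vehicle control viability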
# Conditions: for IC50: curve of first compound; for viability, T/C: stronger effect = lower value
# Source text: Combinatorial screen of targeted agents with ipatasertib and abemaciclib in multi-cell type tumor spheroids
# A high-throughput screen of multi-cell type tumor spheroids was designed to identify active combinations of targeted small molecules and ipatasertib or abemaciclib. Complex spheroids include a stromal component modeled by human endothelial cells (HUVEC) and fibroblasts modeled by human mesenchymal stem cells (MSCs). The concentration ranges selected for each drug and investigational agent were based upon clinically achievable concentrations if the clinical Cmax of the agent was known.
# Compounds. The drugs and investigational agents: ipatasertib (NSC767898), abemaciclib(NSC768073), selumetinib (NSC741078), trametinib (758246), adavosertib (NSC754352), everolimus (NSC733504), sapanisertib (NSC764658), vemurafenib (NSC761431), venetoclax (NSC766270), copanlisib (NSC809693), apelisib (NSC765974), palbociblib (NSC758247), vemurafenib (NSC761431), dabrafenib (NSC764134), ravoxertinib (NSC781343), BMS-387032 (NSC767048), sotorasib (NSC818433), talazoparib (NSC767125) and afursertib (NSC778305), were obtained from the National Cancer Institute (NCI) Developmental Therapeutics Program Chemical Repository. The FDA-approved anticancer drug set is available from the NCI Developmental Therapeutics Program. […] The stock solutions were prepared in dimethyl sulfoxide (DMSO, Sigma-Aldrich, St. Louis, MO, cat. D2650) at 800-fold the tested concentration and stored at -70 degrees C prior to their use. All drugs and investigational agents were tested over a range starting from a high concentration at or near the clinical Cmax and decreasing in half-log increments. If the clinical Cmax for an agent had not been determined, the highest concentration tested was 10 microM.
# NCI60 Cell Culture. NCI60 cell lines were obtained from the NCI Developmental Therapeutics Program Tumor Repository. For each lot of cells, the Repository performed Applied Biosystems AmpFLSTR Identifiler testing with PCR amplification to confirm consistency with the published Identifier STR profile for each cell line. Cells were kept in continuous culture for no more than 20 passages. The optimal seeding densities for each of the cell lines at each time point assessed were determined prior to performing the concentration response studies. Briefly, the NCI60 human tumor lines were grown as monolayers in RPMI 1640 medium supplemented with 10% FBS and 2 mmol/L L-glutamine.
# An additional 9 lines were from the NCI60 cell line panel including MDA-MB-231 breast carcinoma, MDA-MB-468 breast carcinoma, MCF7 breast carcinoma, Hs578T breast carcinoma, MALME-3M melanoma, SK-MEL-2 melanoma, SK-OV-3 ovarian carcinoma, DU-145 prostate carcinoma, PC-3 prostate carcinoma, all cell lines along with major genetic alterations are listed on Table 2. Pooled donor human umbilical vein endothelial cells (HUVEC, Lonza, cat. CC-2519) and human mesenchymal stem cells (hMSC, Lonza, cat. PT-2501) were purchased from Lonza (Walkersville, MD).
# PDMR cell lines were grown in complete medium (DC medium): Dulbecco's modified Eagle's medium (DMEM)/F12 supplemented with 5% fetal bovine serum (FBS), 2 mM L-glutamine, 100 U/mL penicillin and 100 µg/ml streptomycin, 0.4 µg/ml hydrocortisone, 10 ng/ml epidermal growth factor (EGF) recombinant human protein, 24 µg/mL adenine, and 0.1 mg/mL primocin. During culture from frozen stock vials, PDMR cells were cultured in the same medium containing 10 µM Y-27632 (see Table 3). The PDCs were cultured in complete DMEM/F12 media without 10 microM Y-27632 dihydrochloride for at least two passages prior to the screen. The pooled donor HUVEC and hMSC were cultured in endothelial cell growth medium 2 (PromoCell, Heidelberg, Germany, cat. C-22011) and mesenchymal stem cell growth medium 2 (PromoCell, cat. C-28009), respectively. For all experiments, HUVEC and hMSC were used at passages </=5.
# […]
# [1] = second compound 0.01 µM, first compound 0.00949 µM
# [2] = second compound 0.01 µM, first compound 0.03 µM
# [3] = second compound 0.01 µM, first compound 0.0949 µM
# [4] = second compound 0.01 µM, first compound 0.3 µM
# [5] = second compound 0.01 µM, first compound 0.949 µM
# [6] = second compound 0.01 µM, first compound 3 µM
# [7] = second compound 0.0316 µM, first compound 0.00949 µM
# [8] = second compound 0.0316 µM, first compound 0.03 µM
# [9] = second compound 0.0316 µM, first compound 0.0949 µM
# [10] = second compound 0.0316 µM, first compound 0.3 µM
# [11] = second compound 0.0316 µM, first compound 0.949 µM
# [12] = second compound 0.0316 µM, first compound 3 µM
# [13] = second compound 0.1 µM, first compound 0.00949 µM
# [14] = second compound 0.1 µM, first compound 0.03 µM
# [15] = second compound 0.1 µM, first compound 0.0949 µM
# [16] = second compound 0.1 µM, first compound 0.3 µM
# [17] = second compound 0.1 µM, first compound 0.949 µM
# [18] = second compound 0.1 µM, first compound 3 µM
# [19] = second compound 0.316 µM, first compound 0.00949 µM
# [20] = second compound 0.316 µM, first compound 0.03 µM
# [21] = second compound 0.316 µM, first compound 0.0949 µM
# [22] = second compound 0.316 µM, first compound 0.3 µM
# [23] = second compound 0.316 µM, first compound 0.949 µM
# [24] = second compound 0.316 µM, first compound 3 µM
# [25] = second compound 1 µM, first compound 0.00949 µM
# [26] = second compound 1 µM, first compound 0.03 µM
# [27] = second compound 1 µM, first compound 0.0949 µM
# [28] = second compound 1 µM, first compound 0.3 µM
# [29] = second compound 1 µM, first compound 0.949 µM
# [30] = second compound 1 µM, first compound 3 µM
structure (smiles),measurement,setting,value
Cc1nc(NC(=O)N2CCCC2C(N)=O)sc1-c1ccnc(C(C)(C)C(F)(F)F)c1 (stereo not given) + CC(C)NCC(C(=O)N1CCN(c2ncnc3c2C(C)CC3O)CC1)c1ccc(Cl)cc1,IC50,second compound 0.1 µM,5510 nM
same,IC50,second compound 0.316 µM,3820 nM
same,IC50,second compound 1 µM,< 31.6 nM
same,IC50,second compound 3.16 µM,< 31.6 nM
same,IC50,second compound 10 µM,< 31.6 nM
same,"viability, T/C","second compound 0.1 µM, first compound 0.0316 µM",82.6%
same,"viability, T/C","second compound 0.1 µM, first compound 0.1 µM",75.6%
same,"viability, T/C","second compound 0.1 µM, first compound 0.316 µM",79.1%
same,"viability, T/C","second compound 0.1 µM, first compound 1 µM",75.6%
same,"viability, T/C","second compound 0.1 µM, first compound 3.16 µM",72.3%
same,"viability, T/C","second compound 0.1 µM, first compound 10 µM",26.3%
same,"viability, T/C","second compound 0.316 µM, first compound 0.0316 µM",61.5%
same,"viability, T/C","second compound 0.316 µM, first compound 0.1 µM",61.1%
same,"viability, T/C","second compound 0.316 µM, first compound 0.316 µM",58.9%
same,"viability, T/C","second compound 0.316 µM, first compound 1 µM",53.7%
same,"viability, T/C","second compound 0.316 µM, first compound 3.16 µM",57.1%
same,"viability, T/C","second compound 0.316 µM, first compound 10 µM",16.3%
same,"viability, T/C","second compound 1 µM, first compound 0.0316 µM",47.8%
same,"viability, T/C","second compound 1 µM, first compound 0.1 µM",45.7%
same,"viability, T/C","second compound 1 µM, first compound 0.316 µM",48%
same,"viability, T/C","second compound 1 µM, first compound 1 µM",36.8%
same,"viability, T/C","second compound 1 µM, first compound 3.16 µM",31.4%
same,"viability, T/C","second compound 1 µM, first compound 10 µM",8.2%
same,"viability, T/C","second compound 3.16 µM, first compound 0.0316 µM",32.6%
same,"viability, T/C","second compound 3.16 µM, first compound 0.1 µM",30.6%
same,"viability, T/C","second compound 3.16 µM, first compound 0.316 µM",25.5%
same,"viability, T/C","second compound 3.16 µM, first compound 1 µM",20.8%
same,"viability, T/C","second compound 3.16 µM, first compound 3.16 µM",20.6%
same,"viability, T/C","second compound 3.16 µM, first compound 10 µM",4.36%
same,"viability, T/C","second compound 10 µM, first compound 0.0316 µM",16.3%
same,"viability, T/C","second compound 10 µM, first compound 0.1 µM",14.8%
same,"viability, T/C","second compound 10 µM, first compound 0.316 µM",13.2%
same,"viability, T/C","second compound 10 µM, first compound 1 µM",10.3%
same,"viability, T/C","second compound 10 µM, first compound 3.16 µM",7.57%
same,"viability, T/C","second compound 10 µM, first compound 10 µM",1.53%
Cn1cnc2c(F)c(Nc3ccc(Br)cc3Cl)c(C(=O)NOCCO)cc21 + CCN1CCN(Cc2ccc(Nc3ncc(F)c(-c4cc(F)c5nc(C)n(C(C)C)c5c4)n3)nc2)CC1,IC50,second compound 0.01 µM,1130 nM
same,IC50,second compound 0.0316 µM,920 nM
same,IC50,second compound 0.1 µM,798 nM
same,IC50,second compound 0.316 µM,601 nM
same,IC50,second compound 1 µM,152 nM
same,"viability, T/C",[1],102%
same,"viability, T/C",[2],79.5%
same,"viability, T/C",[3],77.7%
same,"viability, T/C",[4],73.3%
same,"viability, T/C",[5],55.1%
same,"viability, T/C",[6],31.5%
same,"viability, T/C",[7],83.7%
same,"viability, T/C",[8],76.3%
same,"viability, T/C",[9],73.6%
same,"viability, T/C",[10],60.8%
same,"viability, T/C",[11],52%
same,"viability, T/C",[12],29.7%
same,"viability, T/C",[13],95.8%
same,"viability, T/C",[14],73.6%
same,"viability, T/C",[15],81.3%
same,"viability, T/C",[16],58.8%
same,"viability, T/C",[17],52.4%
same,"viability, T/C",[18],28.4%
same,"viability, T/C",[19],108%
same,"viability, T/C",[20],89.8%
same,"viability, T/C",[21],75.5%
same,"viability, T/C",[22],63.3%
same,"viability, T/C",[23],51.1%
same,"viability, T/C",[24],16.8%
same,"viability, T/C",[25],92.7%
same,"viability, T/C",[26],69%
same,"viability, T/C",[27],58.9%
same,"viability, T/C",[28],43.5%
same,"viability, T/C",[29],18.8%
same,"viability, T/C",[30],3.98%
CC(C)(C)c1cnc(CSc2cnc(NC(=O)C3CCNCC3)s2)o1 + CCN1CCN(Cc2ccc(Nc3ncc(F)c(-c4cc(F)c5nc(C)n(C(C)C)c5c4)n3)nc2)CC1,IC50,second compound 0.01 µM,105 nM
same,IC50,second compound 0.0316 µM,79.4 nM
same,IC50,second compound 0.1 µM,115 nM
same,IC50,second compound 0.316 µM,62.3 nM
same,IC50,second compound 1 µM,42.6 nM
same,"viability, T/C",[1],110%
same,"viability, T/C",[2],102%
same,"viability, T/C",[3],55.2%
same,"viability, T/C",[4],0.29%
same,"viability, T/C",[5],0.19%
same,"viability, T/C",[6],0.31%
same,"viability, T/C",[7],94.8%
same,"viability, T/C",[8],92%
same,"viability, T/C",[9],42.3%
same,"viability, T/C",[10],0.24%
same,"viability, T/C",[11],0.19%
same,"viability, T/C",[12],0.32%
same,"viability, T/C",[13],93.6%
same,"viability, T/C",[14],91.7%
same,"viability, T/C",[15],59.9%
same,"viability, T/C",[16],0.22%
same,"viability, T/C",[17],0.22%
same,"viability, T/C",[18],0.29%
same,"viability, T/C",[19],90.8%
same,"viability, T/C",[20],89.8%
same,"viability, T/C",[21],27.1%
same,"viability, T/C",[22],0.32%
same,"viability, T/C",[23],0.26%
same,"viability, T/C",[24],0.31%
same,"viability, T/C",[25],85.6%
same,"viability, T/C",[26],70.8%
same,"viability, T/C",[27],2.25%
same,"viability, T/C",[28],0.45%
same,"viability, T/C",[29],0.35%
same,"viability, T/C",[30],0.37%
